11 molecules from PubChem BioAssay (NCI) can be followed below.

SMILES strings stand for the structures. Values joined by “and” are separate entries in the source; they are usually repeats but may differ in a detail not shown here. Identical values can stand only once.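 Test compounds were applied to cells in 96-well plates for 48 hours at 5 doses. At the GI50, growth is halved. TGI: concentration producing complete growth inhibition.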

Some test systems named below: M14 melanoma; COLO 205 colon; HCT-15 colon; SK-MEL-28 melanoma; SK-OV-3 ovarian; HL-60(TB) leukemia; SN12C renal; TK-10 renal; HOP-62 NSCLC; IGROV1 ovarian.
Common to all, as to assay: NCI-60 cell line screen, 48 h

As to `NC(N)=NNC(=O)C(=O)O`, the TGI in the assay on M14 melanoma, in the assay with COLO 205 colon, in the assay on HCT-15 colon, in the assay with SK-MEL-28 melanoma, in the assay on SK-OV-3 ovarian and in the assay with HL-60(TB) leukemia was more than 100 µM each time. Also, the TGI with SN12C renal, in the assay with TK-10 renal, in the assay with HOP-62 NSCLC and in the assay with IGROV1 ovarian was more than 100 µM throughout.
Consider `CCOC(=O)/C=C/c1ccc(C(=O)OCC)[nH]1`, for which the GI50 in the assay on M14 melanoma is 2.82 µM; in the assay with COLO 205 colon it was 2.82 µM; with HCT-15 colon, 3.11 µM; in the assay with SK-MEL-28 melanoma, 33.7 µM; in the assay on SK-OV-3 ovarian, 27.8 µM; in the assay on HL-60(TB) leukemia it was 1.62 µM. Also, the GI50 in the assay with SN12C renal is 5.11 µM; in the assay on TK-10 renal, 6.05 µM; in the assay with HOP-62 NSCLC, 7.14 µM; in the assay with IGROV1 ovarian, 4.84 µM. Further, the TGI with M14 melanoma was more than 100 µM; in the assay with COLO 205 colon it was 8.38 µM; in the assay on HCT-15 colon, more than 100 µM; with SK-MEL-28 melanoma, more than 100 µM; in the assay on SK-OV-3 ovarian it was more than 100 µM; in the assay with HL-60(TB) leukemia, 9.89 µM. In addition, the TGI in the assay with SN12C renal, with TK-10 renal, in the assay on HOP-62 NSCLC and with IGROV1 ovarian was more than 100 µM each time.
With `COc1cccc2c1C1=CC(=O)CCC1C(C)(C)O2` (centres undefined), the TGI in the assay with M14 melanoma, in the assay with COLO 205 colon, in the assay on HCT-15 colon, with SK-MEL-28 melanoma, with SK-OV-3 ovarian and with HL-60(TB) leukemia was more than 100 µM each time. In addition, the TGI in the assay with SN12C renal, in the assay with TK-10 renal, with HOP-62 NSCLC and in the assay with IGROV1 ovarian was more than 100 µM in each case.
As to `CN(C)CCNC(=O)c1cc([N+](=O)[O-])cc2ccc(-c3ccccc3)nc12`, the TGI in the assay with M14 melanoma was more than 100 µM; in the assay with COLO 205 colon it was 21.6 µM; in the assay with HCT-15 colon, more than 56.6 µM; with SK-MEL-28 melanoma, 27.4 µM; with SK-OV-3 ovarian it was 25.5 µM; in the assay with HL-60(TB) leukemia it was 21.7 µM. Besides, the TGI in the assay on SN12C renal is more than 62.7 µM; in the assay with TK-10 renal, 95.5 µM; in the assay with HOP-62 NSCLC, 38.1 µM; with IGROV1 ovarian, 25.6 µM.
Turning to `CC(O)C(NC(=O)C(CS)NC(=O)C(CO)NC(=O)C(CCCCN)NC(=O)C(Cc1c[nH]c2ccccc12)NC(=O)C(Cc1ccc(O)cc1)NC(=O)C(CS)NC(=O)C(N)Cc1ccccc1)C(N)=O` (centres undefined), the TGI was more than 25 µM in the assay with M14 melanoma; > 25 µM and 66.2 µM in the assay with COLO 205 colon; > 25 µM and 56.2 µM in the assay on HCT-15 colon; 76.9 µM in the assay with SK-MEL-28 melanoma; more than 25 µM in the assay with SK-OV-3 ovarian; > 25 µM and 40.5 µM with HL-60(TB) leukemia. In addition, the TGI is > 25 µM and 84.2 µM in the assay with SN12C renal; > 25 µM and 63.4 µM in the assay on HOP-62 NSCLC; > 25 µM and 44 µM with IGROV1 ovarian. For the same molecule, the GI50 with COLO 205 colon was 20.7 µM; in the assay on HL-60(TB) leukemia it was 21.5 µM; with SN12C renal, 28.6 µM; in the assay with IGROV1 ovarian, 20.2 µM.
For `Cn1cc(NC(=O)c2cc(NC(=O)CCCCCC(=O)Nc3cc(C(=O)Nc4cc(C(=O)NCCC(=N)N)n(C)c4)n(C)c3)cn2C)cc1C(=O)NCCC(=N)N`, the TGI in the assay with M14 melanoma, in the assay with COLO 205 colon, in the assay on HCT-15 colon, in the assay on SK-MEL-28 melanoma, in the assay on SK-OV-3 ovarian and in the assay with HL-60(TB) leukemia was more than 100 µM each time. Moreover, the TGI with SN12C renal, in the assay on TK-10 renal and with IGROV1 ovarian was more than 100 µM in each case.
Take `O=C1c2cccc3cc([N+](=O)[O-])cc(c23)C(=O)N1CCCN1CCN(CCCN2C(=O)c3cccc4cc([N+](=O)[O-])cc(c34)C2=O)CC1`: the TGI was 4.87 µM in the assay on M14 melanoma; 2.67 µM in the assay with COLO 205 colon; more than 100 µM in the assay on HCT-15 colon; 46.8 µM in the assay with SK-OV-3 ovarian; 12.8 µM in the assay with HL-60(TB) leukemia; more than 100 µM in the assay with SN12C renal. Moreover, the TGI was 16 µM with TK-10 renal, 33.8 µM in the assay with HOP-62 NSCLC and 15.4 µM in the assay with IGROV1 ovarian.
Take `O=c1c(OC/C(=N/O)c2ccccc2)c(-c2ccccc2)oc2ccccc12`: the GI50 in the assay with M14 melanoma is 19.4 µM; in the assay on COLO 205 colon, 14.8 µM; in the assay on HCT-15 colon it was 17.1 µM; in the assay on SK-MEL-28 melanoma it was 16.6 µM; with SK-OV-3 ovarian, 20.3 µM; with HL-60(TB) leukemia it was 12.6 µM. Besides, the GI50 in the assay on SN12C renal was 11.2 µM; with TK-10 renal, 11.6 µM; in the assay on HOP-62 NSCLC, 20.3 µM. The TGI with M14 melanoma is more than 50 µM; with COLO 205 colon it was 42.9 µM; in the assay with HCT-15 colon, more than 50 µM; with SK-MEL-28 melanoma, 28.9 µM; with SK-OV-3 ovarian it was more than 50 µM; in the assay with HL-60(TB) leukemia, more than 50 µM. Further, the results for the TGI in the assay with SN12C renal, in the assay with TK-10 renal and with HOP-62 NSCLC were 28.7 µM, 22.8 µM and more than 50 µM, respectively.
As to `CCOC(=O)c1c2ccc(/C=C/C(=O)OC)ccc-2c(C(=O)OCC)c1N`, the TGI with M14 melanoma was more than 100 µM; with COLO 205 colon it was more than 100 µM; in the assay on HCT-15 colon it was more than 100 µM; with SK-MEL-28 melanoma it was 8.42 µM; in the assay with SK-OV-3 ovarian it was more than 100 µM; in the assay on HL-60(TB) leukemia it was more than 100 µM. Besides, the TGI in the assay on TK-10 renal and in the assay with IGROV1 ovarian was more than 100 µM throughout.
Consider `O=S(=O)(O)c1ccc2cc(N=Nc3cc(S(=O)(=O)O)c4cccnc4c3O)ccc2c1`, for which the TGI was more than 100 µM with M14 melanoma; more than 100 µM with COLO 205 colon; more than 100 µM in the assay on HCT-15 colon; more than 100 µM in the assay with SK-MEL-28 melanoma; more than 100 µM in the assay with SK-OV-3 ovarian; 4.97 µM in the assay on HL-60(TB) leukemia. Also, the TGI in the assay on TK-10 renal, in the assay on HOP-62 NSCLC and in the assay on IGROV1 ovarian was more than 100 µM throughout.
In the case of `CC(C)(C)C([O-])=C1C(=O)c2ccccc2C1=O.CC(C)(C)C([O-])=C1C(=O)c2ccccc2C1=O.CC[O-].CC[O-].[Ti+4]`, the GI50 in the assay on M14 melanoma is 57.4 µM; in the assay on COLO 205 colon it was 22.7 µM; in the assay with HCT-15 colon it was 29.5 µM; in the assay with SK-MEL-28 melanoma it was more than 100 µM; with SK-OV-3 ovarian, 39.9 µM; in the assay with HL-60(TB) leukemia, 27.1 µM. Also, the GI50 with SN12C renal was 37.7 µM; in the assay with HOP-62 NSCLC, 37.7 µM; in the assay with IGROV1 ovarian, 70.4 µM. Moreover, the TGI in the assay with M14 melanoma is more than 100 µM; in the assay with COLO 205 colon, 44.7 µM; with HCT-15 colon, more than 100 µM; with SK-MEL-28 melanoma it was more than 100 µM; in the assay on SK-OV-3 ovarian it was more than 100 µM; in the assay on HL-60(TB) leukemia, 67 µM. Moreover, the TGI in the assay on SN12C renal, in the assay with HOP-62 NSCLC and in the assay with IGROV1 ovarian was more than 100 µM throughout.
